In patent publication US10683286B2, “Furazan-3-carboxylic acid derivatives and use thereof in treatment of cancer” (FREIE UNIVERSITAET BERLIN, priority 2016, dated 2020):
“Also recorded” adds a separate entry of the source. Read-outs that look alike come from different tables or passages of the source. Values belong to the compound of their own block, whether it stands above or below them. Where a SMILES comes first, the peptide text is derived from it. [ ]: non-standard residue; d: D form. The star is where a group is joined. 5FAM = O=C1OC2(c3ccc(O)cc3Oc3cc(O)ccc32)c2ccc(C(=O)*)cc21; pY = N[C@@H](Cc1ccc(OP(=O)(O)O)cc1)C(=O)O

Columns and labels:
[1] = test system: BaF3/FLT3-ITD cells; assay: Cell proliferation assay (Alamar blue); format: cell-based, murine; details: for inhibition of cell proliferation: 48 h, Alamar blue, FLT3-ITD cells
Protocol: Having proven the functional inhibition of STAT5 as a transcription factor, the effect of STAT5 inhibitors on the proliferation of cancer cells carrying the common FLT3-ITD mutation was investigated. Cells were incubated for 48 h and cell proliferation was quantified by the Alamar blue assay (FIG. 5). […] For comparison, we have tested both compounds on non-STAT5-dependent cell lines and the cytotoxicity effect were negligible up to 500 μM. (FIG. S9).
(§1) The effect of compounds on cell lines was evaluated by In Vitro Toxicology Assay Kit, Resazurin based with indicator dye Alamar Blue (Sigma). Adherent and suspension cells were plated at 5×10^3 per well and 1×10^4 per well respectively in triplicate in 96-well plates and incubated in medium containing 10% FBS. For adherent cell, the complete medium was replaced after 24 hours and incubated with test medium containing vehicle control or serial concentration of compounds for 48 hours at 37° C. The remaining wells in the periphery of the microtiter well plate were added PBS and not used to avoid evaporation effects. Alamar Blue was then added, and all plates were incubated at 37° C., and a colorimetric change was measured according to the methods provided by the provided protocol.

[2] = biological target: T1, STAT5b-SH2 domain (Homo sapiens, UniProt P51692); assay: Competitive fluorescence polarization (FP) assay, STAT5b-SH2 domain; details: for activity / binding to the STAT5-SH2 domain: in words
T1 sequence (P51692 136-703): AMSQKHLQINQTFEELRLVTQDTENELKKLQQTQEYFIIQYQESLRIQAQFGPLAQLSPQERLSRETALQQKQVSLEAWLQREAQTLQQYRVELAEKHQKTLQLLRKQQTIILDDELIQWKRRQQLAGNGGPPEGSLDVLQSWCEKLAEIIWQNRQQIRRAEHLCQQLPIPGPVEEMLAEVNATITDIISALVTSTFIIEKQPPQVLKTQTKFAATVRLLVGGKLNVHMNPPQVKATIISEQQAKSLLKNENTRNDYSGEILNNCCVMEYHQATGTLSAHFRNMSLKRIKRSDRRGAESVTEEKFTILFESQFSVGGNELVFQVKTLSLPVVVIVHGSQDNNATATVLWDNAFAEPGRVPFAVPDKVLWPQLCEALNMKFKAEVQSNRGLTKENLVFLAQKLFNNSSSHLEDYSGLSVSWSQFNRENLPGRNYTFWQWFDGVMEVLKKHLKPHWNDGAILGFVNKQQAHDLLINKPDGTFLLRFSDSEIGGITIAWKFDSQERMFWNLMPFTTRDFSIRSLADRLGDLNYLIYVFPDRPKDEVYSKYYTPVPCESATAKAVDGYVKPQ
Protocol: The ChemBioNet fragment collection composed in accordance with the substructure composition of the World Drug Index (WDI) was screened both for enhancing and inhibiting fragments of the phosphopeptide-STAT5 interaction.
The clone for Stat5b expression was kindly provided by Thorsten Berg (MPI, Martinsried). Expression of that truncated version of Stat5b (aa 136-703) cloned into a modified pQE70, with N-terminal MBP-tag and C-terminal His-tag was conducted on autoinduction medium (overnight express/Novagen). Cells were grown to an optical density (O.D.) of 0.3 at 37° C., then the temperature was reduced to 20° C. for further 48 h of expression. […] The protein was purified by Ni-chelating chromatography followed by gel filtration (Superdex 200/10 mM HEPES pH 7.8, 100 mM NaCl, 1 mM EDTA, 1 mM DTT, 10% glycerol). A yield of 15 mg MBP-Stat5b-His per liter of culture was obtained and aliquots (200 μl of 3.2 mg/ml) were quick-frozen and stored at −80° C., ready for use.
17000 compounds from the (FMP) ChemBioNet library were tested in a competitive-based fluorescence polarization (FP) assay to investigate the ability of compounds to bind to STAT5b-SH2 domain by displacing respective fluorophore-labeled peptides (5-carboxyfluorescein-GY (PO3H2) LSLPPW-NH2). The peptide purity was >95% and the screening were performed at room temperature. The final concentration of buffer components used was 10 mM HEPES (pH 7.5), 1 mM EDTA, 0.1% Igepal CA-630, 50 mM NaCl, and 5% DMSO. The final concentration of protein used was at 65 nM which correspond to the dissociation constants (Kd) for the individual protein-peptide interactions in assay buffer. The protein was first added to the black 384 well plate (Corning 3676) followed by test compounds and fluorophore-labeled peptide. The plates were centrifuged, and measured using Safire^2 well plate reader (Tecan, Crailsheim, Germany) after 15 minutes incubation at room temperature. […] For the analysis of the data GraphPad Prism 5 was used. Ligand efficiencies (LE) were calculated using equation derived as followed. LE=−ΔG°/HA with (ΔG°) is the standard free energy of binding in KJ and HA is the number of non-hydrogen atoms.

[3] = test system: Pim1 kinase, cyclin D1 and Bcl-xl; assay: Expression of transcriptional targets of STAT5, Western blot in BaF3/FLT3-ITD cells; format: cell-based, murine; details: BaF3/FLT-ITD cells, after 6 h
Excerpt: (FIGS. 7A, B). Next, the functional effects of STAT5 inhibitors (6) and (15) on cellular transcription were investigated. For the purpose, the expression of three transcriptional targets of STAT5, namely Pim1 kinase, cyclin D1 and Bcl-xl, which play essential roles in cell cycle progression and survival, was monitored by Western Blotting (FIGS. 6A, B).

[4] = biological target: T2, STAT3 (Mus musculus, UniProt P42227); assay: STAT3 phosphorylation and expression in cells; format: cell-based; details: selectivity in cells
T2 construct: endogenous in cells; context BaF3/FLT3-ITD
Protocol: (§2) Cells were seeded at 0.5×10^6 in 6 well plate and allowed to grow overnight followed by 6 hour incubation with test compounds (0.1% DMSO) before protein extraction with M-PER™ Mammalian Protein Extraction Reagent (Pierce) containing 1% (vol/vol) complete protease inhibitor cocktail (Roche Molecular Biochemicals) and 1% (vol/vol) phosphate inhibitor cocktail (Sigma). For Western blotting, 15 μg of protein from each sample were then separated on a 10% SDS-PAGE and transferred to a PVDF membrane. The blots were blocked with TBST buffer (20 mM Tris-HCl [pH 7.4], 140 mM sodium chloride, and 0.05% Tween 20) containing 5% BSA at room temperature for 1 hour, washed 3 times in TBST buffer, and incubated with primary antibody overnight at 4° C. The membranes were then incubated with HRP-conjugated secondary antibody at room temperature for 1 hour. The reaction products were detected using Syngene Pxi4 imager and quantified by Image J.

[5] = test system: STAT5; assay: STAT5 phosphorylation, Western blot in BaF3/FLT3-ITD cells; details: for tyrosine phosphorylation of STAT5, dose dependence: 6 h treatment; for tyrosine phosphorylation of STAT5, dose dependence / overall expression of endogenous STAT5 / reduction of STAT5 phosphorylation: BaF3/FLT3-ITD; for IC50: read-out: IC50 of STAT5 phosphorylation inhibition, BaF3/FLT3-ITD cells; for IC50 / reduction of STAT5 phosphorylation: 6 h
Protocol: At first, the ligand-mediated inhibition of STAT5 phosphorylation at conserved tyrosine residues (Tyr694 and Tyr699) was investigated, which is initiated by the binding of the SH2 domain to phosphorylated cell surface receptors. […] After 6 h cells were harvested to determine the level of STAT5 phosphorylation using phosphotyrosine-specific antibodies (FIGS. 4A-B).
as §2

[6] = test system: non-STAT5-dependent cell lines; assay: Cytotoxicity on non-STAT5-dependent cell lines; format: cell-based; details: up to 500 μM
Protocol: Carol Stocking (University Hospital Hamburg-Eppendorf). […] Cells were incubated at 37° C., 5% CO2 atmosphere.
as §1

[7] = Solubility; format: physicochemical; details: compared to the 5-aryl-substituted tetrazole

T2 sequence (P42227 whole entry): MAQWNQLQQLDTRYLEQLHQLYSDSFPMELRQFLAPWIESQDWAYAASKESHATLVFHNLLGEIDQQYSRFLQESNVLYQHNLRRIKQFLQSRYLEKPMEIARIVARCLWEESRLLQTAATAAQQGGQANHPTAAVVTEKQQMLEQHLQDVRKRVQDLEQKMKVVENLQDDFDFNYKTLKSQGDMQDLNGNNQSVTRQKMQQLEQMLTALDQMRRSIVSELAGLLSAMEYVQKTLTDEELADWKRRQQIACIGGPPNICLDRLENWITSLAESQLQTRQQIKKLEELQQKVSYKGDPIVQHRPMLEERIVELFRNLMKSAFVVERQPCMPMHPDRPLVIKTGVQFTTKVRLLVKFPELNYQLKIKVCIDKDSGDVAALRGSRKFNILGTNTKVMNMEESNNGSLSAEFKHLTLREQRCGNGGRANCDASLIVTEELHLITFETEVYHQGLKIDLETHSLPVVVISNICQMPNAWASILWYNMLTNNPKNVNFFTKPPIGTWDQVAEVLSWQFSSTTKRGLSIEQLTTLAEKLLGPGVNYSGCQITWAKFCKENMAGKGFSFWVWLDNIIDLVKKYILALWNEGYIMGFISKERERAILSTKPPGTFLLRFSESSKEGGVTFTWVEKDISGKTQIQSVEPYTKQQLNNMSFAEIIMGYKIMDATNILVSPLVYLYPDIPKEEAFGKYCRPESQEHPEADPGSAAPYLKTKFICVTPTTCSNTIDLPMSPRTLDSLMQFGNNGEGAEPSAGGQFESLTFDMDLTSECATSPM

SMILES: O=C(O)c1nonc1NCn1nnnc1CCOc1ccccc1 [Compound 104]
cellular activity (cell proliferation curves, FIG. 8) [1]: significant cellular activity

Ki [2]: > 500 µM
activity / binding to the STAT5-SH2 domain [2]: abolished the activity
SMILES: COC(=O)c1nonc1NC(=O)Cn1cnnn1 [Compound 14]

SMILES: O=C(O)c1nonc1NCn1nnnc1-c1cccc(C(F)(F)F)c1 [Compound 21]
Kd [2]: 0.86 µM
Ki [2]: 0.86 ± 0.05 µM
LE [2]: 1.38

SMILES: O=C(O)c1nonc1NCn1nnnc1-c1cccc(OCc2ccccc2)c1 [Compound 19]
Ki [2]: 1.2 ± 0.5 µM
LE [2]: 1.16

LE ([2]; Table 1, ligand efficiency): 2.14 kJ/mol* atom#
activity / binding to the STAT5-SH2 domain [2]: inactive
SMILES: Nc1nonc1C(=O)O [Compound 4, 4-Amino-furazan-3-carboxylic Acid]

SMILES: CC(=O)OC(C)OC(=O)c1nonc1NCn1cnnn1 (stereo not shown) [Compound 15]
Pim1, cyclin D1 and Bcl-xL expression [3]: dose dependent reduction
inhibition of cell proliferation [1]: clear dose-dependent inhibition
STAT3 phosphorylation [4]: negligible effects
endogenous STAT3 expression [4]: negligible effects
Kd [2]: 14 µM
Ki [2]: 4.6 ± 1.7 µM
LE ([2]; Table 1, ligand efficiency): 1.45 kJ/mol* atom#
tyrosine phosphorylation of STAT5, dose dependence [5]: decrease the tyrosine phosphorylation of STAT5 in a dose dependent manner
overall expression of endogenous STAT5 [5]: no effect
IC50 [5]: 68.9 µM
cytotoxicity effect [6]: negligible

SMILES: O=Cc1ccc(OP(=O)(O)O)cc1 [Compound 1, 4-Formylphenyl-dihydrogen-phosphate, reference compound]
Ki [2]: > 500 µM

SMILES: O=C(O)c1nonc1NCn1nnnc1Cc1ccccc1 [Compound 30, 4-((5-Benzyl-1H-tetrazol-1-yl)-methylamino)-furazan-3-carboxylic Acid]
Ki [2]: 8.6 ± 2 µM
LE [2]: 1.31
reduction of STAT5 phosphorylation ([5]; 50 μM): clear reduction; also recorded: reduces STAT5 phosphorylation significantly
IC50 [5]: 30.8 µM
solubility [7]: strongly improved solubility

SMILES: O=C(O)c1nonc1NCn1nnnc1Cc1cccc(F)c1 [Compound 178]
cellular activity (cell proliferation curves, FIG. 8) [1]: significant cellular activity

SMILES: COC(=O)c1nonc1NCn1nnnc1-c1cccc(NS(C)(=O)=O)c1 [Compound 23]
Ki [2]: 18.3 ± 2.4 µM
LE [2]: 1.00

SMILES: O=C(O)c1nonc1NCn1nnnc1CCc1ccccc1 [Compound 169]
cellular activity (cell proliferation curves, FIG. 8) [1]: significant cellular activity

Ki [2]: > 500 µM
activity / binding to the STAT5-SH2 domain [2]: completely inactive
SMILES: O=C(O)c1nonc1NCc1ccccn1 [Compound 11]

SMILES: O=C(O)c1nonc1NCn1nnnc1Cc1cccc(Cl)c1 [Compound 173]
cellular activity (cell proliferation curves, FIG. 8) [1]: significant cellular activity

Ki [2]: > 500 µM
activity / binding to the STAT5-SH2 domain [2]: inactive
SMILES: COC(=O)c1nsnc1NCn1cnnn1 [Compound 8]

Kd [2]: 145 µM
Ki [2]: 48.2 ± 5 µM
LE ([2]; Table 1, ligand efficiency): 1.30 kJ/mol* atom#
SMILES: CCCCOC(=O)c1nonc1NCn1cnnn1 [Compound 7]

Ki [2]: 191 ± 24 µM
LE ([2]; Table 1, ligand efficiency): 1.41 kJ/mol* atom#
activity / binding to the STAT5-SH2 domain [2]: completely inactive
SMILES: O=C(O)c1nonc1NCn1ccnn1 [Compound 9]

SMILES: CC(C)C[C@H](NC(=O)[C@H](Cc1ccc(OP(=O)(O)O)cc1)NC(=O)CNC(=O)c1ccc2c(c1)C(=O)OC21c2ccc(O)cc2Oc2cc(O)ccc21)C(=O)N[C@@H](CO)C(=O)N[C@@H](CC(C)C)C(=O)N1CCC[C@H]1C(=O)N1CCC[C@H]1C(=O)N[C@@H](Cc1c[nH]c2ccccc12)C(N)=O [Compound 2, Fluo-GY*LSLPPW-NH2, reference compound] (5FAM-G[pY]LSLPPW-NH2)
Kd [2]: 0.055 µM
Ki [2]: 0.055 ± 0.006 µM
LE ([2]; Table 1, ligand efficiency): 0.42 kJ/mol* atom#

SMILES: COC(=O)c1nonc1NCn1nnnc1-c1cccc(C(F)(F)F)c1 [Compound 20]
Ki [2]: 9.5 ± 1.8 µM
LE [2]: 1.10

SMILES: O=C(O)c1nonc1NCn1nnnc1-c1cccc(F)c1 [Compound 27]
Kd [2]: 0.62 µM
Ki [2]: 0.62 ± 0.09 µM
LE [2]: 1.61

Ki [2]: > 500 µM
SMILES: COC(=O)c1nonc1NCn1nnnc1-c1cccc([N+](=O)[O-])c1 [Compound 22]

SMILES: c1nnn[nH]1 [Compound 5, 1H-tetrazole, reference compound]
Ki ([2]; Table 1, inhibitors of STAT5b, KI converted from IC50): > 500 µM
activity / binding to the STAT5-SH2 domain [2]: inactive

SMILES: O=C(O)c1nonc1NCn1nnnc1COCCc1ccccc1 [Compound 113]
cellular activity (cell proliferation curves, FIG. 8) [1]: significant cellular activity

SMILES: O=C(O)c1nonc1NCn1nnnc1CCCc1ccccc1 [Compound 196]
cellular activity (cell proliferation curves, FIG. 8) [1]: significant cellular activity

SMILES: O=C(O)c1nonc1NCn1nnnc1-c1cccc(OC(F)(F)F)c1 [Compound 26]
Ki [2]: 3 ± 0.7 µM
LE [2]: 1.21

SMILES: O=C(O)c1nonc1NCn1nnnc1COCc1ccccc1 [Compound 108]
cellular activity (cell proliferation curves, FIG. 8) [1]: significant cellular activity

Ki [2]: 47.5 ± 8.5 µM
LE ([2]; Table 1, ligand efficiency): 1.64 kJ/mol* atom#
activity / binding to the STAT5-SH2 domain [2]: completely inactive
SMILES: O=C(O)c1nonc1NCn1cncn1 [Compound 10]

SMILES: COC(=O)c1nonc1NCn1nnnc1-c1cccc(O)c1 [Compound 24]
Ki [2]: 22.3 ± 3 µM
LE [2]: 1.21

SMILES: COC(=O)c1nonc1NCn1nnnc1-c1ccc(C(F)(F)F)cc1 [Compound 18]
Ki [2]: 94.9 ± 2.1 µM
LE [2]: 0.88

SMILES: O=C(O)c1nonc1NCn1nnnc1-c1ccc(F)cc1 [Compound 28]
LE [2]: 1.42

Ki [2]: 188 ± 25 µM
LE ([2]; Table 1, ligand efficiency): 1.12 kJ/mol* atom#
activity / binding to the STAT5-SH2 domain [2]: completely inactive
SMILES: O=C(O)c1nonc1NCn1nnc2ccccc21 [Compound 12]

SMILES: COC(=O)c1nonc1NCn1nnnc1-c1cccc(OC(F)(F)F)c1 [Compound 25]
Ki [2]: 16.7 ± 4.3 µM
LE [2]: 1.01

Kd [2]: 122 µM
Ki [2]: 122 ± 7.3 µM
LE ([2]; Table 1, ligand efficiency): 1.49 kJ/mol* atom#
SMILES: O=C(O)c1nonc1NCn1cccn1 [Compound 13]

SMILES: O=C(O)c1nonc1NCn1nnnc1-c1ccc(-c2ccccc2)cc1 [Compound 29]
Kd [2]: 0.8 µM
Ki [2]: 0.8 ± 0.2 µM
LE [2]: 1.30

SMILES: Cc1ccc(Cc2nnnn2CNc2nonc2C(=O)O)cc1 [Compound 174]
cellular activity (cell proliferation curves, FIG. 8) [1]: significant cellular activity

SMILES: COc1ccc(Cc2nnnn2CNc2nonc2C(=O)O)cc1 [Compound 177]
cellular activity (cell proliferation curves, FIG. 8) [1]: significant cellular activity

SMILES: COC(=O)c1nonc1NCn1nnnc1-c1ccccc1 [Compound 17]
Kd [2]: 37 µM
Ki [2]: 37.1 ± 6 µM
LE [2]: 1.15

SMILES: O=C(O)c1nonc1NCn1nnnc1COc1ccccc1 [Compound 100]
cellular activity (cell proliferation curves, FIG. 8) [1]: significant cellular activity

SMILES: O=C(O)c1nonc1NCn1nnnc1Cc1ccc(F)cc1 [Compound 31]
Ki [2]: 7.2 ± 1.9 µM
LE [2]: 1.28

STAT3 phosphorylation [4]: negligible effects
endogenous STAT3 expression [4]: negligible effects
Kd [2]: 76 µM
Ki [2]: 37.4 ± 1.2 µM
LE ([2]; Table 1, ligand efficiency): 1.58 kJ/mol* atom#
IC50 [5]: 44.2 µM
SMILES: COC(=O)c1nonc1NCn1cnnn1 [Compound 6, Methyl 4-((1H-tetrazol-1-yl)-methylamino)-furazan-3-carboxylate]
Pim1, cyclin D1 and Bcl-xL expression [3]: dose dependent reduction
inhibition of cell proliferation [1]: clear dose-dependent inhibition
reduction of STAT5 phosphorylation ([5]; 25 μM): clear reduction
tyrosine phosphorylation of STAT5, dose dependence [5]: decrease the tyrosine phosphorylation of STAT5 in a dose dependent manner
overall expression of endogenous STAT5 [5]: no effect
cytotoxicity effect [6]: negligible
